According to paper PMC6767265, “Cytotoxicity and Apoptosis Induction of Coumarins and Carbazole Alkaloids from Clausena Harmandiana” (Molecules, 2019):
Marks after values point to notes of the source that are not given here.

How the values were obtained:
[1] = DPPH radical scavenging assay; type: biochemical
Description: The 2,2–diphenyl–1–picrylhydrazyl (DPPH) radical scavenging assay was conducted as per the previous method. Briefly, the stock solutions of 10 mM DPPH was prepared in methanol. The DPPH was mixed with samples (100 µL each) at various concentrations (1−500 µM) in 96 wells plate and incubated for 30 min in a dark condition. The absorbance of DPPH radical was measured at 517 nm using a microplate reader (Tecan, Lyon, France). Trolox was used as a positive control. The half maximum inhibitory concentration (IC50 value) was calculated from the plot of percentage of DDPH radical inhibition versus concentration of samples using the following formula: % DPPH radical inhibition = [(Ab − As)/Ab] × 100,(1) where Ab = absorbance of the reagent blank, and As = absorbance of the sample. Each experiment was done in five replications and results are expressed as average values.

[2] = Ferric reducing antioxidant power (FRAP) assay; type: biochemical; conditions: 100 µM compound
Description: FRAP assay was performed following the pervious study with slight modification. FRAP reagent was prepared by mixing 300 mM acetate buffer (pH 3.6), 20 mM ferric chloride solution and 10 mM TPTZ solution in the ratio of 10:1:1 and incubated at 37 °C for 30 min. Then, 150 µL of FRAP reagent was added with 50 µL of the sample (100 µM of isolated compounds or 100 µg/mL of the CH2Cl2 crude extract) in each well of the 96-wells plate. The absorbance was measured at 595 nm using microplate reader (Tecan, Lyon, France). Trolox was used as a positive control. The FRAP value was calculated from the linear equation between the absorbance and ferrous sulfate standard curves (y = 0.0548x + 0.0213, R^2 = 0.9989) and expressed as µM of ferrous sulfate equivalents.

[3] = tested on: human hepatocellular carcinoma cell line (HepG2); assay: Cell viability assay (neutral red), HepG2; type: cell-based
Description: (§1) The human lung adenocarcinoma cell line (SK-LU-1), human colon carcinoma cell line (HCT116), human hepatocellular carcinoma cell line (HepG2) and noncancerous African green monkey kidney epithelial cell line (Vero) were cultured in Dulbecco’s modified Eagle’s medium (DMEM) supplemented with 10% fetal bovine serum, 100 IU/mL penicillin and […] streptomycin. Cells were incubated at 37 °C with 95% air and 5% CO2 until they reached approximately 80% confluence before use.
(§2) Cell viability assay was assessed by neutral red (NR). Briefly, cells at a density of 3 × 10^4 cells/well were seeded in 96-wells plate and incubated for 24 h. The sample at concentration, ranging from 10 to 500 µM, were added and incubated for 24 h. After incubation time, cells were washed with PBS. NR reagent (50 µg/mL) was added to each well and incubated for another 2 h. After that, cells were washed with PBS and lyzed with 0.33% HCl in isopropanol. Cisplatin was used as a positive control. The absorbance of NR was detected using microplate reader (Tecan, Lyon, France) at 520 nm. The percentage of cell viability was calculated vis-à-vis the untreated cells and cytotoxicity was expressed as the inhibition concentration at 50% (IC50). The final DMSO concentration was not exceed 0.1%v/v to lessen the cytotoxicity (<10%).

[4] = tested on: human colon carcinoma cell line (HCT116); assay: Cell viability assay (neutral red), HCT116; type: cell-based
Description: as §1
as §2, with “The sample at concentration, ranging from 10 to 500 µM, were added and incubated for 24 h.” left out

[5] = tested on: human lung adenocarcinoma cell line (SK-LU-1); assay: Cell viability assay (neutral red), SK-LU-1; type: cell-based
Description: as §1
as §2, with “The sample at concentration, ranging from 10 to 500 µM, were added and incubated for 24 h.” left out

[6] = tested on: noncancerous African green monkey kidney epithelial cell line (Vero); assay: Cell viability assay (neutral red), Vero; type: cell-based; design: key to IC50 Vero: inactive: Inactive means cell viability percentage was >50% at the maximum concentration used (>100 µM for the compound or >100 µg/mL for the extract); conditions: 24 h, inactive = viability >50% at >100 µM
Description: as §1, §2

HepG2 cells = assay: Mode of cell death by Annexin V-FITC/PI staining, flow cytometry; type: cell-based, human
Excerpt: In this study, double staining of cells by Annexin V-FITC/propidium iodide (PI) was used to differentiate apoptosis from necrosis. The stages of apoptosis can be distinguished from necrotic cell death by flow cytometry using Annexin V-FITC/PI double staining of HepG2 cells. During the early stages of apoptosis, the phosphatidylserine comprising the cell membrane will externalize to be exposed to the surface of apoptotic cells and bind with Annexin V-FITC, showing a cell dot plot in Quadrant 4. The cell dot plot is positively stained with Annexin V-FITC but negatively stained with PI (+/−). When cells are damaged or undergo a late state of apoptosis, cells will lose their membrane integrity, including nuclear membrane integrity, so that PI can pass through the nuclear membrane, showing a cell dot plot in Quadrant 2. […] During cell undergo necrotic cell death, cells are stained and appear in Quadrant 1 (−/+). Normal cells are not stained and appear in Quadrant 3 (−/−). The total apoptotic cell death percentage was counted from the percentage of cells undergoing an early state and late state of apoptosis gathering from Quadrants 4 and 2, while the necrotic cell death percentage was counted from Quadrant 1, as shown in Figure 2.
The Annexin V-FITC and PI apoptosis assay kit (BioLegend, San Diego, CA, USA) was used to determine mode of cell death as per previous report. The HepG2 cells (8 × 10^5 cell/mL) were seeded in a 24-well plate and incubated for 24 h. The compounds at a concentration of 1 x IC50 and 2 x IC50 were added and incubated for 12 and 24 h. After that, cells were washed with PBS and cold BioLegend’s cell staining buffer followed by staining with Annexin V-FITC and PI and cell were incubated in the dark for 15 min. The cells were analyzed by flow cytometry (BD FACSCanto II, BD Biosciences, San Jose, CA, USA) and the percentage of cells in different populations were calculated with FACSDiva software.

[7] = 30 min in the dark, absorbance 517 nm
[8] = cancer cells over noncancerous Vero cells

DPPH Assay IC50 [1, 7]: 63.8 ± 0.8^d µg/mL
IC50 [1, 7]: 247 ± 3 µM
IC50 ([3]; Homo sapiens, HepG2, 24 h, neutral red): 78.2 ± 2.2 µM
IC50 ([4]; Homo sapiens, HCT-116, 24 h, neutral red, inactive = viability >50% at >100 µM): 79.8 ± 2.8 µM
IC50 ([5]; Homo sapiens, SK-LU-1, 24 h, neutral red, inactive = viability >50% at >100 µM): 94.4 ± 2.2 µM
SMILES: COc1c2c(cc3oc(=O)ccc13)OC(C)(C)C=C2 [Xanthoxyletin (4), xanthoxyletin]
DPPH radical scavenging activity classification ([1]; classified from IC50 in µg/mL): low radical scavenger
FRAP Value [2]: 5.2 ± 0.3^f µM FeSO4 Equivalents
FRAP Value ([2]; listed as xanthoxyletin): 5.2 µM FeSO4 Equivalents
Selectivity Index HepG2 [3, 8]: (1.3)
Selectivity Index HCT116 [4, 8]: (1.3)
Selectivity Index SK-LU-1 [5, 8]: (1.1)
IC50 Vero [6]: inactive^cB
necrotic cell death percentage (Q1, Annexin V-FITC/PI −/+) (HepG2 cells; HepG2, 1 × IC50, 12 h): 2.5 ± 0.7%
apoptotic cell death percentage (total, Quadrants 4 and 2) (HepG2 cells; HepG2, 1 × IC50, 24 h): 49.7 ± 1.1%
necrotic cell death percentage (Q1, Annexin V-FITC/PI −/+) (HepG2 cells; HepG2, 1 × IC50, 24 h): 1.6 ± 0.9%
apoptotic cell death percentage (total, Quadrants 4 and 2) (HepG2 cells; HepG2, 2 × IC50, 12 h): 49.6 ± 1.2%
necrotic cell death percentage (Q1, Annexin V-FITC/PI −/+) (HepG2 cells; HepG2, 2 × IC50, 12 h): 2.9 ± 1.2%
apoptotic cell death percentage (total, Quadrants 4 and 2) (HepG2 cells; HepG2, 2 × IC50, 24 h): 64.2 ± 3.2%
necrotic cell death percentage (Q1, Annexin V-FITC/PI −/+) (HepG2 cells; HepG2, 2 × IC50, 24 h): 2.7 ± 1.1%
